# Test results as given in US20080026003A1, “Methods for inhibiting pain” (The General Hospital Corporation, priority 2000, published 2008).
# Entries after “also recorded” stand apart in the source; their conditions may differ.
# Columns and labels:
# p-p38 and VR1 = p-p38 and VR1 in DRG after intrathecal NGF; type: in vivo, rat; details: for NGF-induced VR1 increase: 1 μg co-administered with NGF twice a day for three days
# Procedure: L4 and L5 DRGs and L4-L5 spinal cord segments were dissected. DRG and transverse spinal cord sections (20 μm) were cut and processed for immunohistochemistry using the previously described ABC method (Ji et al., Nat. Neurosci. 2:1114-1119, 1999), with polyclonal anti-p38 and phospho-p38 (1:300, New England BioLabs) and polyclonal anti-VR1 antibodies (1:5000, Kindly provided by Glaxso Welcome and Dr. David Julius). For colocalization studies, immunofluorescence was performed to analyze the double staining between antibodies reactive with phosphop38 (anti-rabbit, 1:300) and VR1 (anti-guinea pig, 1:3000, Neuromics) or P2X3 (anti-guinea pig, 1:3000, Neuromics) or NeuN (anti-mouse, 1:3000, Chemicon). This double immunofluorescence was performed as previously described (Ji et al., 2001, supra). Briefly, DRG and spinal sections were incubated with a mixture of two primary antibodies overnight at 4° C. and then incubated with a mixture of FITC- and CY3-congugated secondary antibodies (1:300, Jackson immunolab) for two hours at room temperature. A Tyramide Signal Amplification (TSA, NEN) kit was used to perform double staining with two polyclonal rabbit antibodies (phospho p38 and TrkA) as previously reported (Amaya et al., Mol. Cell Neurosci 15:331-342, 2000). The images of immunostained DRG sections were captured with a CCD camera. The intensity of immunostaining was measured with computer-assisted software (IP lab), and the number of immunoreactive neuronal profiles was counted in a blinded fashion. […] Instead, the results provide a way to evaluate differences in staining levels between control and treated animals. To prevent variations due to experimental conditions, the control and treated DRG sections were mounted on the same slides and processed under the same conditions. […] As previously reported (Ji et al., 1999, supra), every fifth section was picked from a series of consecutive DRG sections (20 μm), and four sections were included for each DRG. The percentage of immnunoreactive neuronal profiles=(number of positive stained neuronal profiles/number of total neuronal profiles)×100.
# After CFA-induced inflammation, NGF is produced in the inflamed paw tissue and is retrogradely transported to the cell body of DRG neurons. NGF is critical for gene expression in DRG neurons and plays a major role in inflammatory pain (Lindsay et al., Nature 337: 362-364, 1989; and Woolf et al., Neuroscience 62:327-331, 1994). […] To determine whether NGF is required for the inflammation-induced activation of p38 and upregulation of VR1, NGF antiserum (i.p., 5 μl/g body weight, 84 mg/ml) was injected to neutralize endogenous NGF. […] Intrathecal injection of NGF (2 μg in 10 μl, twice a day for three days, Boeringer) increased both p-p38 levels and VR1 levels in DRG neurons. […]
# p38 and ERK = test: MAP kinase phosphorylation in primary DRG neuron cultures; type: cell-based, rat; details: culture
# Procedure: To investigate the intracellular signaling pathway that leads to the increase in Cox-2 mRNA in the DRG neurons following treatment with IL-1β, the activation of the NFκ-B transcription factor and members of the MAP kinase family in primary DRG neurons was studied. […] Phosphorylated p38 and ERK were visualized by standard Western blot analysis and immunohistochemistry 30 minutes after administration of 10 ng/ml IL-1β to the culture medium (FIG. 12).
# After CFA-induced inflammation, NGF is produced in the inflamed paw tissue and is retrogradely transported to the cell body of DRG neurons. NGF is critical for gene expression in DRG neurons and plays a major role in inflammatory pain (Lindsay et al., Nature 337: 362-364, 1989; and Woolf et al., Neuroscience 62:327-331, 1994). […] To determine whether NGF is required for the inflammation-induced activation of p38 and upregulation of VR1, NGF antiserum (i.p., 5 μl/g body weight, 84 mg/ml) was injected to neutralize endogenous NGF. […] Intrathecal injection of NGF (2 μg in 10 μl, twice a day for three days, Boeringer) increased both p-p38 levels and VR1 levels in DRG neurons. […] To test whether NGF acts via p38 to upregulate VR1, the p38 inhibitor SB203580 (1 μg) was co-administrated with NGF (twice a day for three days).
# CFA-injected paws = test: CFA-induced paw swelling (paw thickness); type: in vivo, rat; details: intrathecal infusion by osmotic pump started before CFA
# Procedure: (§1) CFA-induced inflammatory pain is characterized by hyperalgesia (i.e., an increased sensitivity to a noxious stimulus) and allodynia (i.e., generation of pain by a normally innocuous stimulus). To examine the involvement of p38 activation in the DRG in inflammatory pain, 10 μl of a specific p38 inhibitor, SB 203580 (1 μg, Calbiochem), was administered into the intrathecal space (close to L4 DRG level) via an intrathecal PP10 catheter. Although p38 inhibitors have an anti-inflammatory action when delivered systematically, localized intrathecal drug administration should not affect inflammation in the paw. To obtain a sustained and stable drug infusion, an Alzet osmotic pump (seven day pump, 0.5 μl/hour) was filled with the p38-inhibitor SB 203580 (1 μg/μl) in saline, and the associated catheter of the pump was implanted intrathecally sixteen hours before CFA injection. Saline was used as vehicle control for the osmotic pump.
# [1] = tested on: CFA-induced inflammatory pain in rats; test: Heat and mechanical sensitivity after intrathecal p38 inhibitor; type: in vivo, rat; details: for late phase of inflammation-induced heat hyperalgesia: 24 and 48 hours after CFA
# Procedure: as §1
# To test whether the p38 inhibitor affects basal pain sensitivity, heat and mechanical sensitivity were measured, as previously described (Ji et al., 2001, supra). Briefly, animals were habituated and basal pain sensitivity was tested before drug administration or surgery. Mechanical withdrawal threshold on the plantar surface of the hindpaw was measured with a set of von Frey hairs. […] Thermal paw withdrawal latency was measured using the Hargreaves radiant heat apparatus and averaged over three trials. […] To investigate whether the p38 inhibitor affects established inflammatory pain, SB203580 (1 μg) was intrathecally injected 48 hours after CFA injection. Pain behavior was measured 0.5, 3, and 24 hours after the inhibitor was injected.
# VR1 protein = VR1 protein in DRG after CFA inflammation (Western blot, immunohistochemistry); type: in vivo, rat; details: for induction of VR1 after inflammation: continuous intrathecal infusion via osmotic pump, two days
# Procedure: L4 and L5 DRGs and L4-L5 spinal cord segments were dissected. DRG and transverse spinal cord sections (20 μm) were cut and processed for immunohistochemistry using the previously described ABC method (Ji et al., Nat. Neurosci. 2:1114-1119, 1999), with polyclonal anti-p38 and phospho-p38 (1:300, New England BioLabs) and polyclonal anti-VR1 antibodies (1:5000, Kindly provided by Glaxso Welcome and Dr. David Julius). For colocalization studies, immunofluorescence was performed to analyze the double staining between antibodies reactive with phosphop38 (anti-rabbit, 1:300) and VR1 (anti-guinea pig, 1:3000, Neuromics) or P2X3 (anti-guinea pig, 1:3000, Neuromics) or NeuN (anti-mouse, 1:3000, Chemicon). This double immunofluorescence was performed as previously described (Ji et al., 2001, supra). Briefly, DRG and spinal sections were incubated with a mixture of two primary antibodies overnight at 4° C. and then incubated with a mixture of FITC- and CY3-congugated secondary antibodies (1:300, Jackson immunolab) for two hours at room temperature. A Tyramide Signal Amplification (TSA, NEN) kit was used to perform double staining with two polyclonal rabbit antibodies (phospho p38 and TrkA) as previously reported (Amaya et al., Mol. Cell Neurosci 15:331-342, 2000). The images of immunostained DRG sections were captured with a CCD camera. The intensity of immunostaining was measured with computer-assisted software (IP lab), and the number of immunoreactive neuronal profiles was counted in a blinded fashion. […] Instead, the results provide a way to evaluate differences in staining levels between control and treated animals. To prevent variations due to experimental conditions, the control and treated DRG sections were mounted on the same slides and processed under the same conditions. […]
# To determine whether expression of VR1 protein in DRG neurons was induced by peripheral inflammation, the following Western blot analysis was used. […] The density of specific bands was measured and normalized with internal control bands from the loading control. […]
# [2] = tested on: CFA-induced inflammatory pain in rats; test: Heat and mechanical sensitivity after intrathecal p38 inhibitor; type: in vivo, rat; details: intrathecal 1 μg 24 hours after CFA treatment; tested 0.5, 3 and 24 hours
# [3] = tested on: CFA-induced inflammatory pain in rats; details: non-inflamed animals; Ji et al., 1999; cited from earlier work
# [4] = tested on: CFA inflamed hindpaw of rats; test: Mechanical (von Frey) and thermal (radiant heat) sensitivity after Cox-2 or caspase-1 inhibitor
# Procedure: Thermal sensitivity was assessed by applying a beam of radiant heat and recording the paw withdrawal latency (Decosterd et al., supra).
# Cox-2 mRNA [5] = test: Cox-2 mRNA in lumbar spinal cord after intraplantar CFA (RNase protection assay); type: in vivo, rat
# Procedure: The extent of Cox-2 induction in the central nervous system following unilateral hindpaw inflammation evoked by complete Freund's adjuvant (CFA) was investigated. CFA (100 μl, Sigma) was injected into the left rat hindpaw of rats anaesthetized with 2% halothane. The level of Cox-2 mRNA was measured using RNase protection assays which were performed on total RNA extracts from spinal cord samples using the RPA III kit (Ambion). […] At least two assays were used for each observation, and the fold change in Cox-2 mRNA levels was determined with respect to a β-actin loading control.
# To further support the role of central IL-1β in induction of Cox-2, the effect of inhibiting IL-1β activity was determined.
# PGE2 = PGE2 levels in cerebrospinal fluid after CFA inflammation (enzyme-immunoassay); type: in vivo, rat; details: for decrease of PGE2 levels in the cerebrospinal fluid: intrathecal
# Cox-2 mRNA [6] = test: Cox-2 mRNA in isolated spinal cord slice in vitro; type: cell-based, rat; details: 200 ng/ml; in vitro spinal cord slice
# Procedure: Two mechanisms may contribute to central Cox-2 induction in response to peripheral inflammation: 1) sensory inflow from nerve fibers innervating the inflamed hindpaw or 2) circulating pro-inflammatory cytokines. To determine whether primary sensory neuron activity increases central Cox-2, an isolated adult rat spinal cord slice preparation with an attached dorsal root was analyzed (FIG. 5A). To prepare this spinal cord slice, the lumbar spinal cord from an adult rat under urethane anesthesia was removed and immersed in cold Kreb's solution. A 700-μm-thick transverse slice with attached L4 dorsal root (15-20 mm) was prepared and perfused with Kreb's solution saturated with 95% O2 and 5% CO2 at 36-37° C. (Baba et al., J Neurosci 19:859, 1999). The L4 dorsal root was electrically stimulated for 30 minutes using a suction electrode at 20 μA (0.05 ms, 50 Hz) for Aβ-fibers, 100 μA (0.05 ms, 50 Hz) for […] 1000 μA (0.5 ms, 50 Hz) for C-fibers. The slices were perfused with Kreb's solution for two hours before electrical stimulation, and for three hours after stimulation.
# [7] = intrathecal 2 μg twice a day for three days
# [8] = intrathecal infusion before CFA
# [9] = intrathecal infusion before CFA, listed as SB 203580
# [10] = intrathecal 30 μg, 48 hours after CFA-induced inflammation
compound,measurement,setting,value
"NGF: nerve growth factor, a known pain mediator, injected intrathecally",VR1 levels in DRG neurons,p-p38 and VR1; [7],increases
same,p-p38 levels in DRG neurons,p-p38 and VR1; [7],increases
same,p38 activation in adult primary DRG neurons grown in culture,p38 and ERK,induced
C[S+]([O-])c1ccc(-c2nc(-c3ccncc3)c(-c3ccc(F)cc3)[nH]2)cc1 (stereo not shown) [SB203580],"CFA-induced swelling, based on paw thickness",CFA-injected paws,does not change
same,"CFA-induced swelling, based on paw thickness",CFA-injected paws; listed as SB 203085,did not reduce
same,established inflammatory pain,"[1]; 1 μg intrathecal after CFA, 0.5 hours post-injection",did not affect
same,heat hyperalgesia,"[1]; 1 μg intrathecal after CFA, 24 hours post-injection",completely reversed
same,heat hyperalgesia,"[1]; 1 μg intrathecal after CFA, three hours post-injection",started to decrease
same,inflammatory heat hyperalgesia,"[1]; intrathecal bolus 1 μg twice a day for two days, first 30 minutes prior to CFA",decreased
same,mechanical allodynia,[1]; [8],did not significantly affect
same,late phase of inflammation-induced heat hyperalgesia,[1]; [8],alleviated
same,late phase of inflammation-induced heat hyperalgesia,[1]; [9],reduced
same,mechanical allodynia,[1]; [9],did not affect
same,heat and mechanical sensitivity in non-inflamed rats,"[1]; non-inflamed rats, intrathecal",Neither heat nor mechanical sensitivity in non-inflamed rats was affected
same,early phase of inflammatory pain,"[1]; six hour time point, intrathecal infusion before CFA",did not change
same,induction of VR1 after inflammation,VR1 protein,inhibited; also recorded: blocked
same,induction of VR1 after inflammation,VR1 protein; listed as SB 203580,decreased
same,CFA-induced upregulation of VR1 protein (Western blot),"VR1 protein; intrathecal 1 μg twice a day for two days, at two days",blocked
same,NGF-induced VR1 increase,p-p38 and VR1,significantly suppressed
same,NGF-induced VR1 increase,p-p38 and VR1; listed as 203580,blocked
same,inflammatory heat hyperalgesia,[2],delayed inhibition
COc1cccc(-c2cc(=O)c3ccccc3o2)c1N [PD98059],basal pain sensitivity,[3],no significant change
CS(=O)(=O)Nc1ccc([N+](=O)[O-])cc1OC1CCCCC1 [NS398],reduction of mechanical hyperalgesia,[4]; [10],4.2 fold
same,thermal hyperalgesia,[4]; [10],significantly reduced
same,mechanical or thermal pain sensitivity in naive rats,[4]; naive rats,did not alter
acetyl-Tyr-Val-Ala-Asp-CHO [YVAD],block of the induction of spinal Cox-2 mRNA,"Cox-2 mRNA [5]; 30 minute intrathecal pretreatment, 1 nmole (0.5 μg), six hours after peripheral inflammation",65%
same,reduction of the levels of central PGE2,"PGE2; intrathecal pretreatment 1 nmole, 12 and 24 hours post-inflammation",50%
same,decrease of PGE2 levels in the cerebrospinal fluid,PGE2; 12 hours post inflammation,50%
same,decrease of PGE2 levels in the cerebrospinal fluid,PGE2; 24 hours post-inflammation,70%
same,normalizing mechanical sensitivity,"[4]; intrathecal 1 nmol, CFA inflammation",12 fold
same,thermal withdrawal latency of the CFA inflamed hindpaw,"[4]; intrathecal 1 nmol, compared with vehicle",did not significantly affect
same,mechanical threshold of the CFA inflamed hindpaw,"[4]; intrathecal 1 nmol, compared with vehicle, p<0.05",increased
IL-1ra: recombinant IL-1β receptor antagonist (IL-1ra),reduction of Cox-2 mRNA levels,"Cox-2 mRNA [5]; intrathecal 6 μg 30 minutes prior to CFA injection, six hours post-inflammation",75%
same,activity-evoked Cox-2 mRNA induction,Cox-2 mRNA [6],did not affect
